The values below come from paper PMC9714824, “Hexapeptides from mammalian inhibitory hormone hunt activate and inactivate nematode reproduction” (PLOS ONE, 2022).

In experiment [1] the test system is compensatory renal growth. The following applies: in words; cited from earlier work. How it is done: The 14-residue N-terminal Edman sequence EPL001 was determined in the context of a polypeptide candidate of m/z ~7,500 (‘Candidate 7500’) in MALDI-TOF mass spectrometry (MS) and a corresponding band in SDS polyacrylamide gel electrophoresis, implying a chain of ~70 aa for the native molecule. In spite of comprising only 20% of Candidate 7500, EPL001 surpris ...

Experiment [2] deals with LNCaP cells. Put plainly: MTS viable cell assay, LNCaP (Epistem). It counts as cell-based, human. The following applies: over 72h, single dose level. The protocol:
Further assays on human prostate cancer cells were conducted at a contract research organisation (Epistem, Manchester, UK). LNCaP or DU145 cells seeded at 3,000 cells/well across a 96-well plate were cultured in RPMI (phenol red free), 10% FCS, 1% sodium pyruvate, Pen/strep and L-glutamine for 24h before exposure to peptides, at a single dose level in the case of LNCaPs or multiple dose levels in the case of DU145s. (For dose levels see Results.) Controls received vehicle (1% PBS). For the DU145s peptide administration was repeated after 24h. 72h after the first administration (DU145s) or only administration (LNCaP) total viable cell numbers were measured colorimetrically (MTS) using a CellTiter 96 AQueous One Solution Cell Proliferation Assay (Promega, Southampton, UK), following manufacturer’s instructions. Briefly, the media on the plates was replaced with the CellTiter reagent diluted 1:5 in DMEM. The plates were returned to the incubator for 3 hours before reading absorbance at 492 nm on a FLUORstar OPTIMA (BMG Labtech). CellTiter data are the absorbance minus background values (CellTiter plus DMEM), expressed as (OD mean +/− SEM). Statistical analysis was by ANOVA, Dunnett’s multiple comparisons test.
Background: Tetrazolium dyes change colour on reduction, which living cells bring about.

Experiment [3] relates to hDPSC (Human Dental Pulp Derived Mesenchymal-Like Stem/Progenitor Cells). Details: method as in earlier work. The following applies: EPL001 0.15µM or EPL140 15µM, three days; cited from earlier work.
In experiment [4] the test system is MCF 7 human breast cancer cells. The following applies: in words; EPL120 over 72h, dose range 0.04 nM– 4 μM; cited from earlier work.
Experiment [5] concerns PNT2 cells. Put plainly: MTS colorimetric viable cell assay, PNT2. It counts as cell-based, human. The following applies: 30 μM, 27h, 492 nm, triplicate. How it is done: Assays involving a range of peptides from 14mer down to 6mers assessed total viable PC3 or PNT2 cells using a 96-well plate MTS colorimetric assay (CellTiter 96 Aqueous One Solution Cell Proliferation Assay, Promega, Southampton, UK), with absorbance measured at 492 nm. Cells were seeded at 8,000 per well and grown for 27h. Peptides were administered at the outset to a final concentration of 30 μM (in 2 μl) to samples in triplicate. (A higher dosage was used than in the 14mer peptides study to shorten the timecourse of response.) Controls received buffer. Data are OD mean +/ − SEM, with statistical analysis by two tailed t-test. A time course study of the 14mers on PC3s, using the same technique, involved measurements at 24h and 48h.
Fig 5 Effects of a range of peptides on human prostate cancer cell growth in vitro. Assays involved a range of peptides from 14mers down to 6mers (Table 1), with viable cells assessed using a 96-well plate MTS colorimetric assay. Absorbance measured at 492 nm. Cells were seeded at 8,000 per well and grown for 27h. Peptides were administered at the outset to a final concentration of 30 μM (in 2 μl) to samples in triplicate. Controls received buffer. Data are OD mean +/- SEM, with statistical analysis by two tailed t-test. * p<0.05; **p<0.025.

The subject of experiment [6] is DU145 cells. Put plainly: MTS viable cell assay, DU145 (Epistem). The following applies: DU145; 150 μM (highest concentration); 72h. It counts as cell-based, human. The procedure, abridged: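 DU145 or LNCaP cells, 3,000/well in RPMI with 10% FCS, grown 24 h, then peptide added: multiple dose levels, repeated after 24 h, for DU145; single dose level, once, for LNCaP; vehicle 1% PBS. MTS absorbance 492 nm at 72 h after first dose, background-subtracted OD mean±SEM; ANOVA with Dunnett's test.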

Experiment [7] concerns hMSCs. Details: method as in earlier work. The following applies: EPL001 0.15µM or EPL140 15µM, three days; cited from earlier work.

Turning to “MKPLTGKVKEFNNI [EPL001, 14mer master test peptide …; ovine provenance]”, the “Effect on rat compensatory renal growth” value in experiment [1] is given as “anti-organotrophic”. In addition, the “Reduction in test mean OD versus the vehicle control mean” value in experiment [2] is given as -17.0%. Also, in experiment [3], the Bmal1 expression entry was “↑”, the OCN expression entry is listed as “↓↓”, the PPARγ expression result is “↓↓” and the Per2 expression result is given as “↑”. In experiment [3], the Rev-ErbA expression result is on record as “↓” and the Sox9 expression entry is given as “(↓)”. Moreover, in experiment [4], the “Inhibition of IGF-1 stimulated growth in MCF-7 cell numbers” value is reported as “inhibits the proliferation”. The “Difference in percentage terms between control and test OD means” value in experiment [5] is reported as “+3.1%”. In addition, the “Test mean OD vs control mean” value in experiment [6] is listed as −16.5%. Further, in experiment [7], the Bmal1 expression result was “↑↑”, the OCN expression entry is “↓”, the PPARγ expression entry was “↓” and the Per2 expression entry is “↓”. Further, the Sox9 expression entry in experiment [7] was “↓”.
